Data from PubChem BioAssay (NCI).
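Exposure lasted 48 hours, with cells grown in 96-well plates and compounds tested at five concentrations. Abbreviation: GI50, concentration required for 50% inhibition of growth. TGI is the concentration that stops growth completely.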

Assays:
Assay in all cases: DTP human tumour cell line panel, 48 h
786-0 renal = system: 786-0 renal
A498 renal = system: A498 renal
A549 NSCLC = system: A549 NSCLC
ACHN renal = system: ACHN renal
BT-549 breast = system: BT-549 breast
CAKI-1 renal = system: CAKI-1 renal
CCRF-CEM leukemia = system: CCRF-CEM leukemia
COLO 205 colon = system: COLO 205 colon
DU-145 prostate = system: DU-145 prostate
EKVX NSCLC = system: EKVX NSCLC
HCC-2998 colon = system: HCC-2998 colon
HCT-116 colon = system: HCT-116 colon
HCT-15 colon = system: HCT-15 colon
HL-60(TB) leukemia = system: HL-60(TB) leukemia
HOP-62 NSCLC = system: HOP-62 NSCLC
HOP-92 NSCLC = system: HOP-92 NSCLC
HS 578T breast = system: HS 578T breast
HT29 colon = system: HT29 colon
IGROV1 ovarian = system: IGROV1 ovarian
K-562 leukemia = system: K-562 leukemia
KM12 colon = system: KM12 colon
LOX IMVI melanoma = system: LOX IMVI melanoma
M14 melanoma = system: M14 melanoma
MALME-3M melanoma = system: MALME-3M melanoma
MCF7 breast = system: MCF7 breast
MDA-MB-231 breast = system: MDA-MB-231 breast
MDA-MB-435 = system: MDA-MB-435
MDA-MB-468 breast = system: MDA-MB-468 breast
MOLT-4 leukemia = system: MOLT-4 leukemia
NCI-H226 lung = system: NCI-H226 lung
NCI-H23 lung = system: NCI-H23 lung
NCI-H460 lung = system: NCI-H460 lung
NCI-H522 lung = system: NCI-H522 lung
NCI/ADR-RES ovarian = system: NCI/ADR-RES ovarian
OVCAR-3 ovarian = system: OVCAR-3 ovarian
OVCAR-4 ovarian = system: OVCAR-4 ovarian
OVCAR-5 ovarian = system: OVCAR-5 ovarian
OVCAR-8 ovarian = system: OVCAR-8 ovarian
PC-3 prostate = system: PC-3 prostate
RPMI-8226 leukemia = system: RPMI-8226 leukemia
RXF 393 renal = system: RXF 393 renal
SF-268 CNS = system: SF-268 CNS
SF-295 CNS = system: SF-295 CNS
SF-539 CNS = system: SF-539 CNS
SK-MEL-2 melanoma = system: SK-MEL-2 melanoma
SK-MEL-28 melanoma = system: SK-MEL-28 melanoma
SK-MEL-5 melanoma = system: SK-MEL-5 melanoma
SK-OV-3 ovarian = system: SK-OV-3 ovarian
SN12C renal = system: SN12C renal
SNB-19 CNS = system: SNB-19 CNS
SNB-75 CNS = system: SNB-75 CNS
SW-620 colon = system: SW-620 colon
T-47D breast = system: T-47D breast
TK-10 renal = system: TK-10 renal
U251 CNS = system: U251 CNS
UACC-257 melanoma = system: UACC-257 melanoma
UACC-62 melanoma = system: UACC-62 melanoma
UO-31 renal = system: UO-31 renal

CC(=O)/C=C/c1cccc2c1C(=O)NC(C)(c1cc3cc(Br)ccc3oc1=O)N2 (stereo unspecified)
GI50 (786-0 renal): 13.4 µM | TGI (786-0 renal): 32 µM | GI50 (A498 renal): 28.1 µM | TGI (A498 renal): > 100 µM | GI50 (A549 NSCLC): 23.5 µM | TGI (A549 NSCLC): > 100 µM | GI50 (ACHN renal): 5.02 µM | TGI (ACHN renal): > 100 µM | GI50 (BT-549 breast): 4.78 µM | TGI (BT-549 breast): 18.9 µM | GI50 (CAKI-1 renal): 3.87 µM | TGI (CAKI-1 renal): 28.5 µM | GI50 (CCRF-CEM leukemia): 4.87 µM | TGI (CCRF-CEM leukemia): 56.7 µM | GI50 (COLO 205 colon): 19.6 µM | TGI (COLO 205 colon): 40.9 µM | GI50 (DU-145 prostate): 8.98 µM | TGI (DU-145 prostate): 22.3 µM | GI50 (EKVX NSCLC): 7.36 µM | TGI (EKVX NSCLC): 21 µM | GI50 (HCC-2998 colon): 15.1 µM | TGI (HCC-2998 colon): 28.6 µM | GI50 (HCT-116 colon): 7.13 µM | TGI (HCT-116 colon): 21.3 µM | GI50 (HCT-15 colon): 10.6 µM | TGI (HCT-15 colon): 32.4 µM | GI50 (HL-60(TB) leukemia): 5.61 µM | TGI (HL-60(TB) leukemia): > 100 µM | GI50 (HOP-62 NSCLC): 15.7 µM | TGI (HOP-62 NSCLC): 44 µM | GI50 (HOP-92 NSCLC): 2.19 µM | TGI (HOP-92 NSCLC): 18 µM | GI50 (HS 578T breast): 17.2 µM | TGI (HS 578T breast): > 100 µM | GI50 (HT29 colon): 20.7 µM | TGI (HT29 colon): 73.6 µM | GI50 (IGROV1 ovarian): 8.12 µM | TGI (IGROV1 ovarian): 32.9 µM | GI50 (K-562 leukemia): 4.67 µM | TGI (K-562 leukemia): > 100 µM | GI50 (KM12 colon): 12.4 µM | TGI (KM12 colon): 30.8 µM | GI50 (LOX IMVI melanoma): 10.1 µM | TGI (LOX IMVI melanoma): 22 µM | GI50 (M14 melanoma): 9.29 µM | TGI (M14 melanoma): 25.3 µM | GI50 (MALME-3M melanoma): 11.4 µM | TGI (MALME-3M melanoma): 29.9 µM | GI50 (MCF7 breast): 10.7 µM | TGI (MCF7 breast): 32.4 µM | GI50 (MDA-MB-231 breast): 7.35 µM | TGI (MDA-MB-231 breast): 39.6 µM | GI50 (MDA-MB-435): 10.6 µM | TGI (MDA-MB-435): 30.9 µM | GI50 (MDA-MB-468 breast): 4.28 µM | TGI (MDA-MB-468 breast): 19 µM | GI50 (MOLT-4 leukemia): 8.47 µM | TGI (MOLT-4 leukemia): > 100 µM | GI50 (NCI-H226 lung): 13.6 µM | TGI (NCI-H226 lung): 58.6 µM | GI50 (NCI-H23 lung): 11.9 µM | TGI (NCI-H23 lung): 26.4 µM | GI50 (NCI-H460 lung): 15.7 µM | TGI (NCI-H460 lung): 67.6 µM | GI50 (NCI-H522 lung): 13.6 µM | TGI (NCI-H522 lung): 28.8 µM | GI50 (NCI/ADR-RES ovarian): 15 µM | TGI (NCI/ADR-RES ovarian): 44.5 µM | GI50 (OVCAR-3 ovarian): 7.56 µM | TGI (OVCAR-3 ovarian): 24.7 µM | GI50 (OVCAR-4 ovarian): 11.5 µM | TGI (OVCAR-4 ovarian): > 100 µM | GI50 (OVCAR-5 ovarian): 15.6 µM | TGI (OVCAR-5 ovarian): 38.3 µM | GI50 (OVCAR-8 ovarian): 10.1 µM | TGI (OVCAR-8 ovarian): > 100 µM | GI50 (PC-3 prostate): 5.95 µM | TGI (PC-3 prostate): 39.1 µM | GI50 (RPMI-8226 leukemia): 4.04 µM | TGI (RPMI-8226 leukemia): 33.8 µM | GI50 (RXF 393 renal): 2.33 µM | TGI (RXF 393 renal): 10.7 µM | GI50 (SF-268 CNS): 12.4 µM | TGI (SF-268 CNS): 48.3 µM | GI50 (SF-295 CNS): 11.1 µM | TGI (SF-295 CNS): 25.4 µM | GI50 (SF-539 CNS): 8.67 µM | TGI (SF-539 CNS): 22.3 µM | GI50 (SK-MEL-2 melanoma): 10.2 µM | TGI (SK-MEL-2 melanoma): 27.3 µM | GI50 (SK-MEL-28 melanoma): 13.7 µM | TGI (SK-MEL-28 melanoma): 27.8 µM | GI50 (SK-MEL-5 melanoma): 9.78 µM | TGI (SK-MEL-5 melanoma): 21.6 µM | GI50 (SK-OV-3 ovarian): 25.2 µM | TGI (SK-OV-3 ovarian): > 100 µM | GI50 (SN12C renal): 6.57 µM | TGI (SN12C renal): 24.6 µM | GI50 (SNB-19 CNS): 12.5 µM | TGI (SNB-19 CNS): 25.1 µM | GI50 (SNB-75 CNS): 1.3 µM | TGI (SNB-75 CNS): 19.3 µM | GI50 (SW-620 colon): 19.5 µM | TGI (SW-620 colon): > 100 µM | GI50 (T-47D breast): 11.5 µM | TGI (T-47D breast): 64 µM | GI50 (TK-10 renal): 24.5 µM | TGI (TK-10 renal): 89.6 µM | GI50 (U251 CNS): 12.1 µM | TGI (U251 CNS): 25.5 µM | GI50 (UACC-257 melanoma): 10.4 µM | TGI (UACC-257 melanoma): 26.2 µM | GI50 (UACC-62 melanoma): 7.01 µM | TGI (UACC-62 melanoma): 21.3 µM | GI50 (UO-31 renal): 3.59 µM | TGI (UO-31 renal): 19.1 µM
